The assay has as its target T1, hCRTH2 receptor (Homo sapiens, UniProt Q9Y5Y4).
T1 construct: expressed in transfected cells; host or cells: HEK293
T1 sequence (Q9Y5Y4 1-395): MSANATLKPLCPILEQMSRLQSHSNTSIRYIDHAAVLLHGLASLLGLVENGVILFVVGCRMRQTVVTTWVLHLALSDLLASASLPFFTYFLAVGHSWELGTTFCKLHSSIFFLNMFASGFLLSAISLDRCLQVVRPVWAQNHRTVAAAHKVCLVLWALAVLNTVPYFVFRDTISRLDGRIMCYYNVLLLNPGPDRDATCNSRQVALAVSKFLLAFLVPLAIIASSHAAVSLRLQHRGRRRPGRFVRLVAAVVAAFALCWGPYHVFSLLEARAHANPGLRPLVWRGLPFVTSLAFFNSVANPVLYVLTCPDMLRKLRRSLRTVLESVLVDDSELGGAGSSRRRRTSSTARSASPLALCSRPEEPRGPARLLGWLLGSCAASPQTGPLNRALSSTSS
Description: Radioligand displacement assay (3H-PGD2) on hCRTH2 receptor membranes. The settings on record: antagonistic activity. The assay is classed as binding.

Setting [1] is: radioligand displacement (3H-PGD2), hCRTH2 receptor membranes.
Where [2] appears, read: 3H-PGD2 displacement on HEK293-hCRTH2 membrane fragments.
Where [3] appears, read: 3H-PGD2 radioligand displacement, HEK293-hCRTH2 membranes.

In general, IC50 refers to the concentration that inhibits the measured activity by half. The molecule `N#CNC(=O)COc1ccc(Cl)cc1[C@@H]1c2ccccc2CCN1C(=O)OCc1ccccc1` [Example 567, (S)-benzyl 1-(5-chloro-2-(2-cyanamido-2-oxoethoxy)phenyl)-3,4-dihydroisoquinoline-2(1H)-carboxylate] gave an IC50 under setting [1] of 370 nM. As to `COc1cccc2c1CCN(C(=O)OCc1ccccc1)C2c1cc(F)ccc1OCC(=O)O` (racemic) [Example 35, (±)-1-(2-Carboxymethoxy-5-fluoro-phenyl)-5-methoxy-3,4-dihydro-1H-isoquinoline-2-carboxylic acid benzyl ester], the IC50 under setting [2] amounted to 19.7 nM.

`O=C(O)COc1ccc(F)cc1C1c2ccccc2CCN1C(=O)CCc1ccccc1Cl` (racemic) [Example 131, (±)-(2-{2-[3-(2-Chloro-phenyl)-propionyl]-1,2,3,4-tetrahydro-isoquinolin-1-yl}-4-fluoro-phenoxy)-acetic acid] displayed an IC50 under setting [2] of 48 nM. `COc1ccc2onc(CC(=O)N3Cc4ccccc4C3c3cc(Cl)ccc3OCC(=O)O)c2c1` (racemic) [Example 518] had an IC50 under setting [3] of 20.1 nM.

`O=C(O)COc1ccc(F)cc1C1c2ccccc2CCN1C(=O)Cc1ccccc1` (racemic) [Example 124, (±)-[4-Fluoro-2-(2-phenylacetyl-1,2,3,4-tetrahydro-isoquinolin-1-yl)-phenoxy]-acetic acid]: the IC50 under setting [2] was found to be 417 nM.

Consider `COc1ccc2ccn(CCC(=O)N3CCc4ccccc4C3c3cc(Cl)ccc3OCC(=O)O)c2n1` (racemic) [Example 374], for which the IC50 under setting [3] came to 12.3 nM. For `Cc1cc(COC(=O)N2CCc3ccccc3C2c2cc(Cl)ccc2OCC(=O)O)nn1C` (racemic) [Example 271], the IC50 under setting [2] was determined as 12 nM.

Turning to `COc1cccc([C@@H]2C[C@H]2C(=O)N2CCc3ccccc3C2c2cc(Cl)ccc2OCC(=O)O)c1` (mixture of isomers) [Example 425], the IC50 under setting [3] amounted to 30.6 nM. Under setting [3], `COc1cc(OCC(=O)N2CCc3ccccc3C2c2cc(Cl)ccc2OCC(=O)O)cnc1OC` (racemic) [Example 485] displayed an IC50 of 316 nM. For `O=C(O)COc1ccc(Cl)cc1[C@@H]1c2ccccc2CCN1C(=O)OCCc1ccccc1` [Example 285, (S)-1-(2-Carboxymethoxy-5-chloro-phenyl)-3,4-dihydro-1H-isoquinoline-2-carboxylic acid phenethyl ester], under setting [3], the IC50 is 3.17 nM. `O=C(O)COc1ccc(Cl)cc1C1c2ccc(F)cc2CCN1C(=O)OCc1ccccc1` (racemic) [Example 226, (±)-1-(2-Carboxymethoxy-5-chloro-phenyl)-6-fluoro-3,4-dihydro-1H-isoquinoline-2-carboxylic acid benzyl ester] returned an IC50 under setting [2] of 5.23 nM.

Molecule `O=C(O)COc1cc2c(cc1C1c3ccccc3CCN1C(=O)OCc1ccccc1)OCO2` (racemic) [Example 23, (±)-1-(6-Carboxymethoxy-benzo[1,3]dioxol-5-yl)-3,4-dihydro-1H-isoquinoline-2-carboxylic acid benzyl ester] registered an IC50 under setting [2] of 227 nM. `O=C(O)COc1ccc(F)cc1C1c2ccccc2CCN1C(=O)OCCc1ccccc1Cl` (racemic) [Example 177, (±)-1-(2-Carboxymethoxy-5-fluoro-phenyl)-3,4-dihydro-1H-isoquinoline-2-carboxylic acid 2-(2-chloro-phenyl)-ethyl ester] returned an IC50 under setting [2] of 27.5 nM. The molecule `COc1ccc(OCC(=O)N2CCc3ccccc3C2c2cc(Cl)ccc2OCC(=O)O)c(OC)n1` (racemic) [Example 476] returned an IC50 under setting [3] of 164 nM.

Under setting [2], `CS(=O)(=O)c1cccc2c1CCN(C(=O)OCc1ccccc1)C2c1cc(F)ccc1OCC(=O)O` (racemic) [Example 185] showed an IC50 of 78.7 nM. In turn, `COc1ccc2c(c1)c(CCC(=O)N1CCc3ccccc3C1c1cc(Cl)ccc1OCC(=O)O)cn2C` (racemic) [Example 458] came in with an IC50 under setting [3] of 47.5 nM. Molecule `COc1ccc2c(ccn2CC(=O)N2CCc3ccccc3C2c2cc(Cl)ccc2OCC(=O)O)c1` (racemic) [Example 489] displayed an IC50 under setting [3] of 319 nM.

`Cc1cc2ccccc2n1CCC(=O)N1CCc2ccccc2C1c1cc(Cl)ccc1OCC(=O)O` (racemic) [Example 446] returned an IC50 under setting [3] of 175 nM.

The molecule `O=C(O)COc1ccc(F)cc1C1c2ccccc2CCN1C(=O)COCc1cccc(Cl)c1` (racemic) [Example 190] came in with an IC50 under setting [2] of 16.9 nM. On to `C[C@@H](Oc1ccc(C#N)cc1C1c2ccccc2CCN1C(=O)OCc1ccccc1)C(=O)O` (stereo partly drawn) [Example 13, 1-[2-((R)-1-Carboxy-ethoxy)-5-cyano-phenyl]-3,4-dihydro-1H-isoquinoline-2-carboxylic acid benzyl ester], for which, under setting [2], the IC50 is 11 nM. In the case of `O=C(O)COc1ccc(-c2noc(=S)[nH]2)cc1C1c2ccccc2CCN1C(=O)OCc1ccccc1` (racemic) [Example 214, (±)-1-[2-Carboxymethoxy-5-(5-thioxo-4,5-dihydro-[1,2,4]oxadiazol-3-yl)-phenyl]-3,4-dihydro-1H-isoquinoline-2-carboxylic acid benzyl ester], the IC50 under setting [2] came to 147 nM. In the case of `O=C(O)COc1ccc(Cl)cc1C1c2ccccc2CCN1C(=O)COCc1ccccc1Cl` (racemic) [Example 106, (±)-(4-Chloro-2-{2-[2-(2-chloro-benzyloxy)-acetyl]-1,2,3,4-tetrahydro-isoquinolin-1-yl}-phenoxy)-acetic acid], the IC50 under setting [2] was determined as 4.06 nM.

Regarding `O=C(O)COc1ccc(F)cc1C1c2ccc(F)c(F)c2CCN1C(=O)OCc1ccccc1` (racemic) [Example 14, (±)-1-(2-Carboxymethoxy-5-fluoro-phenyl)-5,6-difluoro-3,4-dihydro-1H-isoquinoline-2-carboxylic acid benzyl ester], the IC50 under setting [2] is 18.8 nM.

Under setting [3], `O=C(O)COc1ccc(Cl)cc1C1c2ccccc2CCN1C(=O)NCc1cccc(F)c1` (racemic) [Example 491] had an IC50 of 19.8 nM.

With `O=C(O)COc1ccc(Cl)cc1C1c2ccccc2CCN1C(=O)CCc1nccn1-c1ccccc1` (racemic) [Example 83, (±)-(4-Chloro-2-{2-[3-(1-phenyl-1H-imidazol-2-yl)-propionyl]-1,2,3,4-tetrahydro-isoquinolin-1-yl}-phenoxy)-acetic acid], under setting [2], the IC50 is 422 nM. On to `O=C(O)COc1ccc(Cl)cc1C1c2ccccc2CCN1C(=O)OCc1ccccc1Br` (racemic) [Example 227], for which the IC50 under setting [2] was found to be 7.21 nM.

With `O=C(O)COc1ccc(Cl)cc1[C@@H]1c2ccccc2CCN1C(=O)[C@@H]1C[C@H]1c1ccccc1C(F)(F)F` [Example 562, (4-Chloro-2-{(S)-2-[(1R,2R)-2-(2-trifluoromethyl-phenyl)-cyclopropanecarbonyl]-1,2,3,4-tetrahydro-isoquinolin-1-yl}-phenoxy)-acetic acid], the IC50 under setting [1] worked out at 3.75 nM. `COc1cccc(COCC(=O)N2CCc3ccccc3C2c2cc(F)ccc2OCC(=O)O)c1` (racemic) [Example 195] came in with an IC50 under setting [2] of 36.3 nM. The same measure, in the same setting: to `O=C(O)COc1ccc(Cl)cc1C1c2ccccc2CCN1C(=O)[C@@H]1C[C@H]1c1ccc(Cl)cc1` (mixture of isomers) [Example 157] belongs 45.3 nM. As for `O=C(O)COc1ccc(Cl)cc1C1c2ccc(F)cc2CCN1C(=O)CCOc1ccc(F)cc1` (racemic) [Example 438], the IC50 under setting [3] was determined as 91.1 nM.

On to `CS(=O)(=O)c1ccc(CCC(=O)N2CCc3ccccc3C2c2cc(F)ccc2OCC(=O)O)cc1` (racemic) [Example 145, (±)-(4-Fluoro-2-{2-[3-(4-methanesulfonyl-phenyl)-propionyl]-1,2,3,4-tetrahydro-isoquinolin-1-yl}-phenoxy)-acetic acid], for which, under setting [2], the IC50 amounted to 983 nM.

Under setting [2], `Cc1ccc(COC(=O)N2CCc3ccccc3C2c2cc(Cl)ccc2OCC(=O)O)c(C)n1` (racemic) [Example 256] came in with an IC50 of 14.1 nM. For the molecule `O=C(O)COc1ccc(Cl)cc1C1c2ccccc2CN1C(=O)CCN1CCCc2ccccc21` (racemic) [Example 515], under setting [3], the IC50 is 60.1 nM. On the same count and under the same terms, as for `Cc1cccc([C@@H]2C[C@H]2C(=O)N2CCc3ccccc3C2c2cc(Cl)ccc2OCC(=O)O)c1` (mixture of isomers) [Example 427], the figure is 46.6 nM; as for `Cn1nccc1COC(=O)N1CCc2cc(F)ccc2[C@H]1c1cc(Cl)ccc1OCC(=O)O` [Example 337, (S)-1-(2-Carboxymethoxy-5-chloro-phenyl)-6-fluoro-3,4-dihydro-1H-isoquinoline-2-carboxylic acid 2-methyl-2H-pyrazol-3-ylmethyl ester], 3.61 nM. Turning to `O=C(O)COc1ccc(Cl)cc1C1c2ccccc2CCN1C(=O)Cn1ccc2ccccc21` (racemic) [Example 72, (±)-{4-Chloro-2-[2-(2-indol-1-yl-acetyl)-1,2,3,4-tetrahydro-isoquinolin-1-yl]-phenoxy}-acetic acid], the IC50 under setting [2] amounted to 44 nM. Regarding `O=C(O)COc1ccc(Cl)cc1C1c2ccccc2CCN1C(=O)CCn1ccc2ccc(C(F)(F)F)cc21` (racemic) [Example 370], under setting [3], the IC50 worked out at 80.6 nM. `COc1cc(OC)c2ccn(CCC(=O)N3CCc4ccccc4C3c3cc(Cl)ccc3OCC(=O)O)c2n1` (racemic) [Example 376]: under setting [3], the IC50 was found to be 32.5 nM. With `O=C(O)COc1ccc(Cl)cc1C1c2ccccc2CCN1C(=O)OCc1cccc(F)c1` (racemic) [Example 238], the IC50 under setting [2] stood at 12.6 nM. Under setting [2], `O=C(O)COc1ccc(Cl)cc1C1c2ccccc2CCN1C(=O)C1=Cc2ccccc2OC1` (racemic) [Example 69, (±)-{4-Chloro-2-[2-(2H-chromene-3-carbonyl)-1,2,3,4-tetrahydro-isoquinolin-1-yl]-phenoxy}-acetic acid] showed an IC50 of 377 nM.

Source of the values: US8575158B2, “1-phenyl-substituted heterocyclyl derivatives and their use as prostaglandin D2 receptor modulators” (Actelion Pharmaceuticals Ltd., priority 2010, dated 2013).
